Data reported in US10660872B2, “Methods for treatment of cognitive decline” (Ramot at Tel-Aviv University Ltd., priority 2014, dated 2020).

How the values were obtained:
ICR mice [1] = experiment: open field test (immobility); settings: single intraperitoneal dose, five minutes in arena
ICR mice [2] = experiment: hot plate test (analgesia); settings: single intraperitoneal dose, from 15 minutes after injection, hotplate 45° C.
ICR mice [3] = experiment: body temperature using a rectal thermometer; settings: single intraperitoneal dose
aged mice = experiment: Object Recognition Test (visual memory) in aged mice; settings: 0.002 mg/kg THC intraperitoneal, 3 times a week for three weeks
aged ICR mice = experiment: oasis maze test (spatial learning); settings: 0.002 mg/kg THC, three times a week for three weeks
[4] = conventional dose 1, 2 or 10 mg/kg
[5] = low dose 0.001, 0.002 or 0.01 mg/kg

CCCCCc1cc(O)c2c(c1)OC(C)(C)[C@@H]1CCC(C)=C[C@@H]21 [THC, (−)-trans-Δ^9-tetrahydrocannabinol]
immobility (slowing of motor activity) (ICR mice [1]; [4]): induced conventional acute cannabinoid effects
immobility (slowing of motor activity) (ICR mice [1]; [5]): failed to induce any of these effects
analgesia (latency to respond to noxious stimulus) (ICR mice [2]; [4]): induced conventional acute cannabinoid effects
analgesia (latency to respond to noxious stimulus) (ICR mice [2]; [5]): failed to induce any of these effects
hypothermia (reduced body temperature) (ICR mice [3]; [4]): induced conventional acute cannabinoid effects
hypothermia (reduced body temperature) (ICR mice [3]; [5]): failed to induce any of these effects
adverse acute effects upon administration (aged mice): No adverse acute effects were recognized
time to finding the filled well in test trials (aged ICR mice): find the filled well in significantly less time than aged mice treated with vehicle alone
